Data from ChEMBL document CHEMBL4396945, “Hybrid molecules of scutellarein and tertramethylpyrazine's active metabolites for ischemic stroke” (Bioorg Med Chem Lett, 2019).
In brackets after ≈: the same amount, converted by molar mass. Activity calls are given as the source filed them. No cut-off for these calls is given here.

How the values were obtained:
[1] = Solubility in water; format: physicochemical
[2] = tested on: Plasma; test: Anticoagulant activity in rabbit platelet poor plasma assessed as thrombin time at 100 uM incubated for 3 mins by coagulometric analysis (reference value: 12.58 +/- 0.76 sec); format: functional, Oryctolagus cuniculus
[3] = Lipophilicity, logP of compound; format: physicochemical; settings: octanol/water
[4] = tested on: Plasma; test: Anticoagulant activity in rabbit platelet poor plasma assessed as prothrombin time at 100 uM incubated for 3 mins by coagulometric analysis (reference value: 4.32 +/- 0.28 sec); format: functional, Oryctolagus cuniculus
[5] = tested on: Plasma; test: Anticoagulant activity in rabbit platelet poor plasma assessed as fibrinogen level at 100 uM incubated for 3 mins by coagulometric analysis (reference value: 14.24 +/- 0.67 g/l); format: functional, Oryctolagus cuniculus
[6] = tested on: PC-12; test: Antioxidant activity against H2O2-induced oxidative stress in rat PC12 cells assessed as cell viability preincubated for 24 hrs followed by H2O2 stimulation further incubated for 5 hrs by MTS assay; format: functional, cell-based
[7] = tested on: Plasma; test: Anticoagulant activity in rabbit platelet poor plasma assessed as activated partial thromboplastin time at 100 uM incubated for 3 mins by coagulometric analysis (reference value: 19.13 +/- 0.54 sec); format: functional, Oryctolagus cuniculus
[8] = tested on: Rattus norvegicus; test: Neuroprotective activity in Sprague-Dawley rat model of middle cerebral artery occlusion-induced ischemia-reperfusion injury assessed as decrease in infarct area at 0.7 mmol/kg, ig for 7 days by TTC staining based assay; format: functional, organism-based
[9] = Stability in pH 7.4 phosphate buffer assessed as half life; format: physicochemical
[10] = tested on: Rattus norvegicus; test: Neuroprotective activity in Sprague-Dawley rat middle cerebral artery occlusion-induced ischemia-reperfusion injury model assessed as reduction in nuclear pyknosis of hippocampus CA1 at 0.35 to 1.40 mmol/kg, ig administered for 7 days by HE staining based assay; format: functional, organism-based
[11] = tested on: Rattus norvegicus; test: Neuroprotective activity in Sprague-Dawley rat middle cerebral artery occlusion-induced ischemia-reperfusion injury model assessed as reduction in hyperchromic of hippocampus CA1 at 0.35 to 1.40 mmol/kg, ig administered for 7 days by HE staining based assay; format: functional, organism-based
[12] = tested on: Rattus norvegicus; test: Neuroprotective activity in Sprague-Dawley rat middle cerebral artery occlusion-induced ischemia-reperfusion injury model assessed as decrease in irregular cell morphology of hippocampus CA1 at 0.35 to 1.40 mmol/kg, ig administered for 7 days by HE staining based assay; format: functional, organism-based
[13] = tested on: Rattus norvegicus; test: Neuroprotective activity in ig dosed Sprague-Dawley rat model of middle cerebral artery occlusion-induced ischemia-reperfusion injury assessed as decrease in infarct area by TTC staining based assay; format: functional, organism-based
[14] = tested on: Rattus norvegicus; test: Neuroprotective activity in Sprague-Dawley rat middle cerebral artery occlusion-induced ischemia-reperfusion injury model assessed as reduction in dissolution of hippocampus CA1 at 0.35 to 1.40 mmol/kg, ig administered for 7 days by HE staining based assay; format: functional, organism-based

| SMILES | solubility [1] [µg/mL] | TT [2] [s] | logP [3] | PT [4] [s] | Fibrinogen level [5] [g/L] | Activity [6] | APTT [7] [s] | Activity [8] | half-life [9] [h] | Activity [10] | Activity [11] | Activity [12] | Activity [13] | Activity [14] |
| --- | --- | --- | --- | --- | --- | --- | --- | --- | --- | --- | --- | --- | --- | --- |
| Cc1nc(C)c(C)nc1C [LIGUSTRAZINE] | 4500 (≈ 33000 µM) | 25.36 | 1.26 | 6.13 | 3.28 | Dose-dependent effect | 39.24 | Active |  |  |  |  |  |  |
| CC[C@H](C)[C@@H](NC(=O)OCc1nc(C)c(C)nc1C)C(=O)Oc1ccc(-c2cc(=O)c3c(O)c(O)c(O)cc3o2)cc1 | 234 (≈ 406 µM) | 38.42 | 2.83 | 8.32 | 2.54 | Dose-dependent effect | 49.28 |  | 64.8 |  |  |  |  |  |
| Cc1nc(C)c(COC(=O)COc2ccc(-c3cc(=O)c4c(O)c(O)c(O)cc4o3)cc2)nc1C | 30.6 (≈ 64 µM) |  | 2.39 |  |  | Dose-dependent effect |  |  | 21.4 |  |  |  |  |  |
| Cc1nc(C)c(COC(=O)NCC(=O)Oc2ccc(-c3cc(=O)c4c(O)c(O)c(O)cc4o3)cc2)nc1C | 454 (≈ 871 µM) |  | 2.1 |  |  | Dose-dependent effect |  |  | 14.3 |  |  |  |  |  |
| Cc1nc(C)c(C(=O)N[C@@H](C(=O)N[C@@H](C)C(=O)Oc2ccc(-c3cc(=O)c4c(O)c(O)c(O)cc4o3)cc2)C(C)C)nc1C | 856 (≈ 1420 µM) |  | 1.98 |  |  | Dose-dependent effect |  |  | 51.6 |  |  |  |  |  |
| Cc1nc(C)c(C(=O)Oc2ccc(-c3cc(=O)c4c(O)c(O)c(O)cc4o3)cc2)nc1C | 12.1 (≈ 27.9 µM) |  | 3.01 |  |  | Dose-dependent effect |  |  | 15.1 |  |  |  |  |  |
| Cc1nc(C)c(C(=O)NCC(=O)Oc2ccc(-c3cc(=O)c4c(O)c(O)c(O)cc4o3)cc2)nc1C | 628 (≈ 1280 µM) | 32.16 | 2.8 | 6.39 | 3.12 | Dose-dependent effect | 43.57 |  | > 72 |  |  |  |  |  |
| Cc1nc(C)c(C(=O)N[C@@H](C(=O)Oc2ccc(-c3cc(=O)c4c(O)c(O)c(O)cc4o3)cc2)C(C)C)nc1C | 240 (≈ 449 µM) |  | 1.38 |  |  | Dose-dependent effect |  |  | > 72 |  |  |  |  |  |
| Cc1nc(C)c(COC(=O)N[C@H](C)C(=O)Oc2ccc(-c3cc(=O)c4c(O)c(O)c(O)cc4o3)cc2)nc1C | 799 (≈ 1490 µM) | 36.25 | 1.53 | 7.72 | 2.68 | Dose-dependent effect | 48.21 |  | 27.8 | Active | Active | Active | Dose-dependent effect | Active |
| O=c1cc(-c2ccc(O)cc2)oc2cc(O)c(O)c(O)c12 [SCUTELLAREIN] | 14.4 (≈ 50.3 µM) | 18.12 | 0.96 | 5.72 | 7.41 | Dose-dependent effect | 34.26 | Active | 5.5 |  |  |  |  |  |
| Cc1nc(C)c(COC(=O)N[C@H](CC(C)C)C(=O)Oc2ccc(-c3cc(=O)c4c(O)c(O)c(O)cc4o3)cc2)nc1C | 221 (≈ 382 µM) | 37.91 | 1.69 | 8.57 | 2.47 | Dose-dependent effect | 47.56 |  | 57.2 |  |  |  |  |  |
| Cc1nc(C)c(COC(=O)N[C@@H](C(=O)Oc2ccc(-c3cc(=O)c4c(O)c(O)c(O)cc4o3)cc2)C(C)C)nc1C | 252 (≈ 448 µM) |  | 1.04 |  |  | Dose-dependent effect |  |  | 45.6 |  |  |  |  |  |
| Cc1nc(C)c(COC(=O)CCCOc2ccc(-c3cc(=O)c4c(O)c(O)c(O)cc4o3)cc2)nc1C | 356 (≈ 703 µM) |  | 1.48 |  |  | Dose-dependent effect |  |  | 19.8 |  |  |  |  |  |
| Cc1nc(C)c(C(=O)N[C@H](CC(C)C)C(=O)Oc2ccc(-c3cc(=O)c4c(O)c(O)c(O)cc4o3)cc2)nc1C | 26 (≈ 47.5 µM) |  | 0.91 |  |  | Dose-dependent effect |  |  | 69.2 |  |  |  |  |  |
